# Assay results from PubChem BioAssay (NCI).
#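 Assay format: 96-well plates, 48-hour exposure. At the TGI there is no net growth.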
# Experiments:
# Assay in all cases: inhibition of tumour cell growth, NCI panel, 48 h
# OVCAR-5 ovarian = tested on: OVCAR-5 ovarian
# HT29 colon = tested on: HT29 colon
# 786-0 renal = tested on: 786-0 renal
# MDA-MB-435 = tested on: MDA-MB-435
# K-562 leukemia = tested on: K-562 leukemia
# UACC-62 melanoma = tested on: UACC-62 melanoma
# TK-10 renal = tested on: TK-10 renal
# NCI-H522 lung = tested on: NCI-H522 lung
# HOP-62 NSCLC = tested on: HOP-62 NSCLC
# SF-268 CNS = tested on: SF-268 CNS
# ACHN renal = tested on: ACHN renal
# MOLT-4 leukemia = tested on: MOLT-4 leukemia
# HCT-116 colon = tested on: HCT-116 colon
# MALME-3M melanoma = tested on: MALME-3M melanoma
# MDA-N = tested on: MDA-N
Compound,TGI (OVCAR-5 ovarian) [µM],TGI (HT29 colon) [µM],TGI (786-0 renal) [µM],TGI (MDA-MB-435) [µM],TGI (K-562 leukemia) [µM],TGI (UACC-62 melanoma) [µM],TGI (TK-10 renal) [µM],TGI (NCI-H522 lung) [µM],TGI (HOP-62 NSCLC) [µM],TGI (SF-268 CNS) [µM],TGI (ACHN renal) [µM],TGI (MOLT-4 leukemia) [µM],TGI (HCT-116 colon) [µM],TGI (MALME-3M melanoma) [µM],TGI (MDA-N) [µM]
CCCCCCCCP(=O)(O)OP(=O)(O)OCC1OC(n2ccc(N)nc2=O)C(O)C1O (stereo not given),> 100,> 100,> 100,> 100,> 100,> 100,> 100,> 100,> 100,> 100,> 100,> 100,> 100,> 100,> 100
COC(=O)C(Cc1c[nH]c2ccccc12)NP(=O)(O)OCC1OC(n2cc(Br)c(=O)[nH]c2=O)CC1O (stereo not given),> 100,> 100,> 100,> 100,> 100,> 100,> 100,> 100,> 100,> 100,> 100,> 100,> 100,> 100,> 100
O=C1CC(=O)NC(=NN2C(=O)CSC2C(=O)c2ccco2)N1 (stereo not given),> 100,> 100,> 100,> 100,> 100,> 100,> 100,> 100,> 100,> 100,> 100,> 100,> 100,> 100,> 100
Cc1cc(S(=O)(=O)Nc2nncn2-c2ccc(Cl)cc2)c(S)cc1Cl,> 10,> 10,> 10,> 10,> 10,> 10,> 10,> 10,> 10,> 10,> 10,> 10,> 10,> 10,> 10
O=C(O)c1c2c(cc3c1CC1(Cc4cc5c(cc4C1=O)CCC5)C3)CCC2 (stereo not given),> 100,> 100,> 100,> 100,> 100,> 100,> 100,> 100,> 100,> 100,> 100,> 100,> 100,> 100,> 100
NCCCNOCCCN,> 100,> 100,> 100,> 100,> 100,> 100,> 100,> 100,> 100,> 100,> 100,> 100,> 100,> 100,> 100
COC(=O)c1c(C)cccc1C1CN=NC12Cc1cc(C)cc(C)c1C2=O (stereo not given),> 100,> 100,> 100,> 100,> 100,> 100,98.3,41.2,> 100,> 100,> 100,> 100,> 100,> 100,> 100
CCCCSC1=N/C(=C\c2ccc(N(C)C)cc2)C(=O)N1,> 100,36.8,42.9,> 100,> 100,81.3,> 100,73.9,> 100,> 100,> 100,> 100,74.9,> 100,> 100
CCCCc1ccc(Nc2nc(Cl)c3ccn(C4CC(Oc5ccc(C)cc5)C(COc5ccc(C)cc5)O4)c3n2)cc1 (stereo not given),> 31.6,> 46.4,> 46.4,> 46.4,> 46.4,30.6,43.4,30.7,> 100,> 100,31.4,> 46.4,> 46.4,32.9,> 46.4
Cc1cc(Nc2ccc(NS(C)(=O)=O)cc2)c2c(ccc3nccc32)[nH]1,75.1,89.3,45.2,30.5,34.6,30.7,> 100,23.4,44.5,23,60.8,11.8,37.9,27.8,31.5
Cc1ccc(S(=O)(=O)N/N=C2\CC3CC4CCC2C4C3)cc1 (stereo not given),> 100,> 100,> 100,> 100,> 100,> 100,> 100,> 100,> 100,> 100,> 100,> 100,> 100,> 100,> 100
Cc1c(C)c(C)c(-n2c(=O)n(C)c(=O)n2-c2cc(C(C)(C)C)cc(C(C)(C)C)c2O)c(C)c1C,26.9,15.9,22.4,27.2,27.2,23.7,24.5,14.6,28,27.7,24.8,19.3,18.4,24.9,22.9
